Assays:
AD-like symptoms = conditions: mice, two independent studies [24, 25]; cited from earlier work
human skin biopsies = assay: Ex-vivo human skin organ culture model, topical treatment
Procedure: (§1) Paraffin wax-embedded skin tissue sections (5 μm) were dewaxed, rehydrated and boiled in pre-treatment solution (Panomics) for 5 minutes and subsequently treated with protease (Panomics) for 30 minutes at 37° C. Locked nucleic acid (LNA) probes were then added to the sections and incubated at 51° C. for 4 hours. The LNA probes used are specific to miR-335 and scrambled (non-targeting) sequences and are 5′ and 3′ digoxigenin- (DIG-) labelled. After washing the sections sequentially with 5× saline-sodium citrate (SSC), 1×SSC and 0.3×SSC buffer, they were blocked with 10% goat serum and incubated with anti-DIG alkaline phosphatase (Roche) overnight at 4° C. Fast Red Substrate (Panomics) were used to detect miRNA-bound LNA probes. Tissue sections were counterstained with 4′,6-diamidino-2-phenylindole dihydrochloride (DAPI) (Sigma-Aldrich) and mounted with FluorSave™ reagent (EMD Millipore). The slides were examined with an FV1000 inverted confocal microscope (Olympus) and images were acquired using Olympus FluoView with TRITC and DAPI filters.
Paraffin wax-embedded skin tissue sections (5 μm) were dewaxed and rehydrated through decreasing concentration of ethanol. Endogenous peroxidases in tissue sections were quenched by 3% H2O2 in absolute methanol for 30 minutes. The sections were then boiled in antigen retrieval solution (pH 6, DAKO). Sections were then blocked in 10% goat serum for 30 minutes and incubated with primary antibodies overnight at 4° C. After incubation with primary antibodies, tissues were incubated with anti-rabbit or -mouse Envision-labelled polymer reagents (DAKO) for 1 hour at room temperature. The staining was visualized by 3,3′-diaminodbenzidine (DAB) substrate chromogen kit (DAKO). Slides were counterstained with haematoxylin and examined with a Zeiss AxioImager Z1 upright light microscope after mounting with CytosealTM60 mounting medium (Richard Allan Scientific). Images were acquired using Zeiss Zen software.
(§2) Total RNA was isolated using miRCURY™ RNA isolation kit (Exiqon). For miRNA quantification, cDNA was synthesized using Taqman® miRNA reverse transcription kit (Life Technologies) and the expression level of miRNAs was quantified by TaqMan Gene Expression Assays (Applied Biosystems) in 7900 fast RT-PCR system (Applied Biosystems) using Taqman miRNA-specific primers. For mRNA expression, cDNA was synthesized using SuperScript® III Reverse Transcriptase (Life Technologies) according to manufacturer's protocol. The expression levels of mRNAs were measured using SYBR green PCR Master Mix (Applied Biosystems). […] The expression of a gene/miRNA was defined from threshold cycle (Ct), and relative transcript abundance was calculated using ddCT method. […]

miR-335 = miR-335 expression in N/TERT-1 cells treated with HDAC inhibitors (qRT-PCR, in situ hybridization); assay type: cell-based, human
Procedure: as §1, with “Tissue sections were counterstained with 4′,6-diamidino-2-phenylindole dihydrochloride (DAPI) (Sigma-Aldrich) and mounted with FluorSave™ reagent (EMD Millipore). The slides were examined with an FV1000 inverted confocal microscope (Olympus) and images were acquired using Olympus FluoView with TRITC and DAPI filters.” left out
as §2, with “For mRNA expression, cDNA was synthesized using SuperScript® III Reverse Transcriptase (Life Technologies) according to manufacturer's protocol.” left out

N/TERT-1 keratinocytes [1] = assay: Cornified envelope assay; assay type: cell-based, human; conditions: N/TERT-1 treated with HDAC inhibitor vs control, FIG. 6C, 6D
Procedure: N/TERT-1 keratinocytes were grown in DF-K media until confluent, and then shifted to high Ca^2+ conditions (1.5 mM) for a further 7 days in fresh DF-K media to induce terminal differentiation and cornified envelope formation, and the number of cornified envelopes (CEs) assessed following the method of Rice et al. In brief, cells were trypsinized and resuspended at 2.0×10^6 cells/ml in dissociation buffer containing 0.1 M Tris-HCl buffer pH 8.0, 2% SDS and 20 mM dithiothreitol. CEs were harvested by boiling the samples for 15 minutes at 100° C. Detergent- and reducing agent-resistant CEs were collected as an insoluble pellet by centrifugation at 4000×g for 10 minutes. CEs were counted with a hemocytometer, and CE formation was expressed as a percentage of input cell number.

N/TERT-1 keratinocytes [2] = assay: Expression of MEST and keratinocyte differentiation markers (IVL, SPRR2F, TGM1) in N/TERT-1 cells treated with HDAC inhibitors; assay type: cell-based, human
Procedure: Cells were fixed and permeabilized with ice-cold acetone/methanol for 10 minutes. After washing in phosphate buffered saline (PBS), the cells were incubated with 10% goat serum for 30 minutes. The cells were subsequently incubated with primary antibodies for 2 hours at room temperature or overnight at 4° C. After washing three times with PBS with 0.1% Tween 20, the cells were incubated in dark with Alexa Fluor secondary antibodies (Invitrogen) for an hour. Nuclei were stained using DAPI. After washing with PBS, the cells were mounted onto slides with FluorSave reagent (EMD Millipore). Images were taken with an FV1000 inverted confocal microscope (Olympus) using Olympus FluoView.
Total RNA was isolated using miRCURY™ RNA isolation kit (Exiqon). For miRNA quantification, cDNA was synthesized using Taqman® miRNA reverse transcription kit (Life Technologies) and the expression level of miRNAs was quantified by TaqMan Gene Expression Assays (Applied Biosystems) in 7900 fast RT-PCR system (Applied Biosystems) using Taqman miRNA-specific primers. For mRNA expression, cDNA was synthesized using SuperScript® III Reverse Transcriptase (Life Technologies) according to manufacturer's protocol. The expression levels of mRNAs were measured using SYBR green PCR Master Mix (Applied Biosystems). U6 and RPLP0 were used as endogenous normalization controls for miRNA and protein-coding genes, respectively. The expression of a gene/miRNA was defined from threshold cycle (Ct), and relative transcript abundance was calculated using ddCT method. All reactions were run in triplicates. The primers were designed using the Primer3 software and the NCBI design primer tools. The primers were checked for their GC content and any secondary structure formation using OligoCalc.
A panel of 42 HDAC inhibitors (HDACi) covering the majority of type I, II and pan HDACis were purchased from Selleckchem. N/TERT-1 grown to confluence were treated with HDACi at a final concentration of 1 μM from a 100 μM stock. Control wells were treated with DMSO at a final concentration of 1%. […]

N/TERT-1 cells = assay: HDAC inhibitor screening: toxicity, growth arrest and differentiation; assay type: cell-based, human; conditions: HDACi 1 μM, 48 hrs
Procedure: A panel of 42 HDAC inhibitors (HDACi) covering the majority of type I, II and pan HDACis were purchased from Selleckchem. N/TERT-1 grown to confluence were treated with HDACi at a final concentration of 1 μM from a 100 μM stock. Control wells were treated with DMSO at a final concentration of 1%. After 48 hrs of treatment, cells were either processed for total RNA isolation or fixed and stained for human involucrin by immunocytochemistry.

[3] = tested on: promoter region of miR-335 and MEST; assay: Chromatin immunoprecipitation (ChIP)-qPCR at the promoter region of miR-335 and MEST; assay type: cell-based, human
Procedure: Cells were crosslinked with 1.5% formaldehyde for 10 minutes at 37° C. The reaction was stopped by adding glycine to the final concentration of 125 mM for 5 minutes at 37° C. Fixed cells were washed twice with ice-cold PBS, scraped and centrifuged. The pellets were then incubated with Buffer A (10 mM HEPES Ph7.9, 10 mM KCl, 0.1 mM EGTA, 1 mM DTT and 0.5 mM PMSF) supplemented with 1×protease inhibitor cocktail (Roche) and 10% glycerol on ice for 30 min, followed by 0.5% NP-40 for 5 minutes to lyse cytoplasmic membrane. The cells were then centrifuged at 1500×g for 5 minutes to pellet down nuclei. Nuclear pellet was then lysed in ChIP buffer (50 mM Tris pH 7.4, 150 mM NaCl, 5 mM EDTA, 0.5% NP-40, 1% Triton X-100, 0.05% SDS, 1×protease inhibitor cocktail). Nuclear chromatin was sheared by sonication for 15 min (30 sec on and 30 sec off) in Bioruptor® water bath sonicator. The sonicated samples were centrifuged, and the supernatant containing the sheared chromatin was harvested. For each ChIP reaction, 250 μl of chromatin extract was incubated with appropriate antibodies at 4° C. overnight on a rotary wheel. 50 μl of Protein A sepharose resin (precoated with 0.5% BSA and 0.2 mg/mL tRNA) was then added to the immunoprecipitated samples and incubated for 2 hours. […] Fold enrichment of the genes was calculated using ddCt method with input Ct values as normalization control.

For `CC(/C=C/C(=O)NO)=C\[C@@H](C)C(=O)c1ccc(N(C)C)cc1` [TSA, trichostatin A], the “development of AD-like symptoms” value (AD-like symptoms) is listed as “suppress the development of AD-like symptoms”.
With `O=C(/C=C/c1cccc(S(=O)(=O)Nc2ccccc2)c1)NO` [belinostat, (E)-N-hydroxy-3-(3-(N-phenylsulfamoyl)phenyl)acrylamide] the “expression of miR-335 in epidermal layers by in situ hybridization” value (human skin biopsies; human skin biopsies vs mock treated skin, FIG. 6F) was “higher expression of miR-335”, the “levels of IVL by immunohistochemistry” value (human skin biopsies; human skin biopsies, FIG. 6G) was “significant increase in the levels of IVL” and the “filaggrin (FLG) protein by immunohistochemistry” value (human skin biopsies; human skin biopsies, FIG. 11) was “induced significant levels of filaggrin”. The “expression of miR-335 by quantitative RT-PCR” value (human skin biopsies; human skin biopsies, topical in acetone, 1 mM, daily for six days, FIG. 6E) was “significant expression of miR-335”, the “expression of miR-335 by in situ hybridization” value (miR-335; N/TERT-1 cells, FIG. 6B upper panel) was “Induced expression of miR-335” and the “number of cornified envelopes (CEs)” value (N/TERT-1 keratinocytes [1]) was “increased number of CEs”. For the same compound, the “expression of IVL by immunocytochemistry” value (N/TERT-1 keratinocytes [2]; N/TERT-1 cells vs control cells, FIG. 6B lower panel) was “significant expression of IVL” and the toxicity (N/TERT-1 cells) was “low toxicity”.
With `CCCC(=O)[O-].[Na+]` [sodium butyrate] the “relative expression of miR-335” value (miR-335; N/TERT-1 keratinocytes, qRT-PCR, FIG. 5B) was “significant miR-335 upregulation”, the “relative expression of MEST” value (N/TERT-1 keratinocytes [2]; N/TERT-1, qRT-PCR, FIG. 5C) was “significantly increased MEST expression” and the “relative transcript abundance of differentiation markers IVL, SPRR2F and TGM1” value (N/TERT-1 keratinocytes [2]; N/TERT-1, qRT-PCR, FIG. 5F) was “significant upregulation”. The “enrichment of H3K4ac at the upstream region of MEST and miR-335” value ([3]; N/TERT-1, ChIP, FIG. 5D) was “significant increase in the enrichment of H3K4ac” and the “HDAC2 enrichment in the promoter region of miR-335” value ([3]; keratinocytes, ChIP) was “reduced”.

Reference: patent US20230117361A1, “COMPOSITION COMPRISING MIR-335” (AGENCY FOR SCIENCE, TECHNOLOGY AND RESEARCH, priority 2019, published 2023)
